Tests used:
[1] = system: GLXMAW (Soybean, Williams); experiment: Preemergence herbicidal evaluation; type: in vivo, Glycine max, (L.) Merr. cv Williams; settings: preemergence, rated 4-5 weeks after treatment, 0-9 scale
Summary of the method: (§1)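 Visual 0-9 rating vs control (stand, vigor, malformation, size, chlorosis, overall appearance), scored 4-5 wk after spraying. Seeded soil cups were treated preemergence with compound in aqueous acetone, ~0.0156-0.500 kg/ha equivalent.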

[2] = system: CHEAL (Lambsquarters, Common); experiment: Postemergence herbicidal evaluation; type: in vivo, Chenopodium album; settings: postemergence
Summary of the method: (§2)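 Seedlings grown about two weeks were sprayed at 40 psi with compound dispersed in 50/50 acetone/water plus 0.5% TWEEN 20, at about 0.0156 to 0.500 kg/ha. Plants were kept in the greenhouse and scored 4–5 weeks later on a 0–9 visual scale against untreated controls.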

[3] = system: IPOHE (Morningglory, Ivyleaf); experiment: Preemergence herbicidal evaluation; type: in vivo, Ipomoea hederacea; settings: preemergence, rated 4-5 weeks after treatment, 0-9 scale
Summary of the method: as §1

[4] = system: IPOHE (Morningglory, Ivyleaf); experiment: Postemergence herbicidal evaluation; type: in vivo, Ipomoea hederacea; settings: postemergence
Summary of the method: as §2

CASOB (Sicklepod) [5] = experiment: Preemergence herbicidal evaluation; type: in vivo, Cassia obtusifolia; settings: preemergence, rated 4-5 weeks after treatment, 0-9 scale
Summary of the method: as §1

[6] = system: TRZAWR (Wheat, Winter, cv Riband); experiment: Postemergence herbicidal evaluation; type: in vivo, Triticum aestivum; settings: postemergence
Summary of the method: as §2

AMBEL (Ragweed, Common) [7] = experiment: Postemergence herbicidal evaluation; type: in vivo, Ambrosia artemisifolia; settings: postemergence
Summary of the method: as §2

AMBEL (Ragweed, Common) [8] = experiment: Preemergence herbicidal evaluation; type: in vivo, Ambrosia artemisifolia; settings: preemergence, rated 4-5 weeks after treatment, 0-9 scale
Summary of the method: as §1

CASOB (Sicklepod) [9] = experiment: Postemergence herbicidal evaluation; type: in vivo, Cassia obtusifolia; settings: postemergence
Summary of the method: as §2

ORYSAT (Rice, Tebonnet) = experiment: Preemergence herbicidal evaluation; type: in vivo, Oryza sativa, (L.) Tebonnet; settings: preemergence, rated 4-5 weeks after treatment, 0-9 scale
Summary of the method: as §1

MOOVA (Monochoria) = experiment: Preemergence weed control under flooded paddy conditions; type: in vivo, Monochoria vaginalis; settings: rated 3-4 weeks after treatment
Summary of the method: (§3)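 Using flooded silt loam (water 1.5 to 3 cm deep), seeds sown in the top 0.5 cm were exposed preemergence to compound pipetted into the flood at about 0.0313 to 0.500 kg/ha. Effects were scored 0-9 by eye three to four weeks later.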

ECHCG (Barnyardgrass) = experiment: Postemergence herbicidal evaluation; type: in vivo, Echinochloa crus-galli; settings: postemergence
Summary of the method: as §2

[10] = system: GLXMAW (Soybean, Williams); experiment: Postemergence herbicidal evaluation; type: in vivo, Glycine max, (L.) Merr. cv Williams; settings: postemergence
Summary of the method: as §2

ABUTH (Velvetleaf) = experiment: Preemergence herbicidal evaluation; type: in vivo, Abutilon theophrasti; settings: preemergence, rated 4-5 weeks after treatment, 0-9 scale
Summary of the method: as §1

[11] = system: CHEAL (Lambsquarters, Common); experiment: Preemergence herbicidal evaluation; type: in vivo, Chenopodium album; settings: preemergence, rated 4-5 weeks after treatment, 0-9 scale
Summary of the method: as §1

[12] = system: SAGPY (Arrowhead (Pygmaea)); experiment: Preemergence weed control under flooded paddy conditions; type: in vivo, Sagittaria pygmaea; settings: rated 3-4 weeks after treatment
Summary of the method: as §3

CCOC(=O)CN1C(=O)C(CC(=O)NOC)SC1=Nc1cc(-n2c(=O)cc(C(F)(F)F)n(C)c2=O)c(F)cc1Cl (stereo not drawn) [Compound 83, Ethyl 2-{{2-chloro-5-[3,6-dihydro-3-methyl-2,6-dioxo-4-(trifluoromethyl)-1(2H)-pyrimidinyl]-4-fluorophenyl}imino}-5-[(methoxycarbamoyl)methyl]-4-oxo-3-thiazolidineacetate]
GLXMAW rating ([1]; 0.0156 kg/ha): 0.0
GLXMAW rating ([1]; 0.0313 kg/ha): 0.0
GLXMAW rating ([1]; 0.0625 kg/ha): 0.0
GLXMAW rating ([1]; 0.1250 kg/ha): 0.0
GLXMAW rating ([1]; 0.2500 kg/ha): 5.0
GLXMAW rating ([1]; 0.5000 kg/ha): 7.0
CHEAL herbicidal rating ([2]; rate 0.0156 kg/ha): 5.0
CHEAL herbicidal rating ([2]; rate 0.0313 kg/ha): 7.0
CHEAL herbicidal rating ([2]; rate 0.0625 kg/ha): 9.0
CHEAL herbicidal rating ([2]; rate 0.1250 kg/ha): 9.0
IPOHE rating ([3]; 0.0156 kg/ha): 0.0
IPOHE rating ([3]; 0.0313 kg/ha): 0.0
IPOHE rating ([3]; 0.0625 kg/ha): 0.0
IPOHE rating ([3]; 0.1250 kg/ha): 3.0
IPOHE rating ([3]; 0.2500 kg/ha): 9.0
IPOHE rating ([3]; 0.5000 kg/ha): 9.0
IPOHE herbicidal rating ([4]; rate 0.0156 kg/ha): 9.0
IPOHE herbicidal rating ([4]; rate 0.0313 kg/ha): 9.0
IPOHE herbicidal rating ([4]; rate 0.0625 kg/ha): 9.0
IPOHE herbicidal rating ([4]; rate 0.1250 kg/ha): 9.0
CASOB rating (CASOB (Sicklepod) [5]; 0.0156 kg/ha): 0.0
CASOB rating (CASOB (Sicklepod) [5]; 0.0313 kg/ha): 0.0
CASOB rating (CASOB (Sicklepod) [5]; 0.0625 kg/ha): 0.0
CASOB rating (CASOB (Sicklepod) [5]; 0.1250 kg/ha): 0.0
CASOB rating (CASOB (Sicklepod) [5]; 0.2500 kg/ha): 3.0
CASOB rating (CASOB (Sicklepod) [5]; 0.5000 kg/ha): 3.0
TRZAWR herbicidal rating ([6]; rate 0.0156 kg/ha): 3.5
TRZAWR herbicidal rating ([6]; rate 0.0313 kg/ha): 4.0
TRZAWR herbicidal rating ([6]; rate 0.0625 kg/ha): 4.5
TRZAWR herbicidal rating ([6]; rate 0.1250 kg/ha): 6.5
AMBEL herbicidal rating (AMBEL (Ragweed, Common) [7]; rate 0.0156 kg/ha): 9.0
AMBEL herbicidal rating (AMBEL (Ragweed, Common) [7]; rate 0.0313 kg/ha): 9.0
AMBEL herbicidal rating (AMBEL (Ragweed, Common) [7]; rate 0.0625 kg/ha): 9.0
AMBEL herbicidal rating (AMBEL (Ragweed, Common) [7]; rate 0.1250 kg/ha): 9.0
AMBEL rating (AMBEL (Ragweed, Common) [8]; 0.0156 kg/ha): 0.0
AMBEL rating (AMBEL (Ragweed, Common) [8]; 0.0313 kg/ha): 0.0
AMBEL rating (AMBEL (Ragweed, Common) [8]; 0.0625 kg/ha): 0.0
AMBEL rating (AMBEL (Ragweed, Common) [8]; 0.1250 kg/ha): 9.0
AMBEL rating (AMBEL (Ragweed, Common) [8]; 0.2500 kg/ha): 9.0
AMBEL rating (AMBEL (Ragweed, Common) [8]; 0.5000 kg/ha): 9.0
CASOB herbicidal rating (CASOB (Sicklepod) [9]; rate 0.0156 kg/ha): 0.0
CASOB herbicidal rating (CASOB (Sicklepod) [9]; rate 0.0313 kg/ha): 9.0
CASOB herbicidal rating (CASOB (Sicklepod) [9]; rate 0.0625 kg/ha): 7.0
CASOB herbicidal rating (CASOB (Sicklepod) [9]; rate 0.1250 kg/ha): 9.0
ORYSAT rating (ORYSAT (Rice, Tebonnet); 0.0156 kg/ha): 0.0
ORYSAT rating (ORYSAT (Rice, Tebonnet); 0.0313 kg/ha): 0.0
ORYSAT rating (ORYSAT (Rice, Tebonnet); 0.0625 kg/ha): 0.0
ORYSAT rating (ORYSAT (Rice, Tebonnet); 0.1250 kg/ha): 0.0
ORYSAT rating (ORYSAT (Rice, Tebonnet); 0.2500 kg/ha): 0.0
ORYSAT rating (ORYSAT (Rice, Tebonnet); 0.5000 kg/ha): 5.0
MOOVA herbicidal effect rating (MOOVA (Monochoria); 0.0313 kg/ha): 9.0
MOOVA herbicidal effect rating (MOOVA (Monochoria); 0.0625 kg/ha): 9.0
MOOVA herbicidal effect rating (MOOVA (Monochoria); 0.1250 kg/ha): 9.0
MOOVA herbicidal effect rating (MOOVA (Monochoria); 0.2500 kg/ha): 9.0
ECHCG herbicidal rating (ECHCG (Barnyardgrass); rate 0.0156 kg/ha): 0.0
ECHCG herbicidal rating (ECHCG (Barnyardgrass); rate 0.0313 kg/ha): 2.0
ECHCG herbicidal rating (ECHCG (Barnyardgrass); rate 0.0625 kg/ha): 4.0
ECHCG herbicidal rating (ECHCG (Barnyardgrass); rate 0.1250 kg/ha): 9.0
GLXMAW herbicidal rating ([10]; rate 0.0156 kg/ha): 4.5
GLXMAW herbicidal rating ([10]; rate 0.0313 kg/ha): 6.5
GLXMAW herbicidal rating ([10]; rate 0.0625 kg/ha): 8.0
GLXMAW herbicidal rating ([10]; rate 0.1250 kg/ha): 8.5
ABUTH rating (ABUTH (Velvetleaf); 0.0156 kg/ha): 4.0
ABUTH rating (ABUTH (Velvetleaf); 0.0313 kg/ha): 6.0
ABUTH rating (ABUTH (Velvetleaf); 0.0625 kg/ha): 9.0
ABUTH rating (ABUTH (Velvetleaf); 0.1250 kg/ha): 9.0
ABUTH rating (ABUTH (Velvetleaf); 0.2500 kg/ha): 9.0
ABUTH rating (ABUTH (Velvetleaf); 0.5000 kg/ha): 9.0
CHEAL rating ([11]; 0.0156 kg/ha): 9.0
CHEAL rating ([11]; 0.0313 kg/ha): 9.0
CHEAL rating ([11]; 0.0625 kg/ha): 9.0
CHEAL rating ([11]; 0.1250 kg/ha): 9.0
CHEAL rating ([11]; 0.2500 kg/ha): 9.0
CHEAL rating ([11]; 0.5000 kg/ha): 9.0
SAGPY herbicidal effect rating ([12]; 0.0313 kg/ha): 7.0
SAGPY herbicidal effect rating ([12]; 0.0625 kg/ha): 7.0
SAGPY herbicidal effect rating ([12]; 0.1250 kg/ha): 7.0
SAGPY herbicidal effect rating ([12]; 0.2500 kg/ha): 9.0

— patent publication US20020137929A1, “1 - (3-heterocyclylphenyl) isothiourea, -isourea, -guanidine and -amidine herbicidal agents” (Intellectual Property Department, BASF Aktiengesellschaft, priority 1998, published 2002)
